Data on 30 compounds can be found in patent US8609666B2, “2-morpholino-pyrido[3,2-D]pyrimidines” (Merck Serono SA, priority 2009, dated 2013).

The test system of this assay is Human recombinant GST-PI3K. The assay can be described thus: PI3K induced-lipid phosphorylation scintillation proximity assay (neomycin-coated SPA beads). In kind it is biochemical. The conditions noted are these: amount necessary to achieve 50% inhibition of PI3K; 120 min at room temperature. The text has this:
The efficacy of compounds of the invention in inhibiting the PI3K induced-lipid phosphorylation may be tested in the following binding assay. The assay combines the scintillation proximity assay technology (SPA, Amersham) with the capacity of neomycin (a polycationic antibiotic) to bind phospholipids with high affinity and specificity. The Scintillation Proximity Assay is based on the properties of weakly emitting isotopes (such as ^3H, ^125I, ^33P). Coating SPA beads with neomycin allows the detection of phosphorylated lipid substrates after incubation with recombinant PI3K and radioactive ATP in the same well, by capturing the radioactive phospholipids to the SPA beads through their specific binding to neomycin. To a 96 wells MTP containing 10 μl of the test compound of Formula (I) (solubilized in 10% DMSO; to yield a concentration of 100, 25, 5.0, 1.25, 0.312, 0.078, 0.0195, 0.00488, 0.00122 and 0.0003 μM of the test compound), the following assay components are added: 1) 10 μL of lipid micelles 2) […] of Kinase buffer ([^33P]γATP162 μM/300 nCi, MgCl2 2.5 mM, DTT 2.5 mM, Na3VO4 25 μM in Hepes 40 mM, pH 7.4) and 3) 10 μL (100 ng) of Human recombinant GST-PI3K (in Hepes 40 mM, pH 7.4, ethylenglycol 4%). After incubation at room temperature for 120 minutes, with gentle agitation, the reaction is stopped by addition of 200 μL of a solution containing 250 μg of neomycin-coated PVT SPA beads, ATP 60 mM and EDTA 6.2 mM in PBS. The assay is further incubated at room temperature for 60 minutes with gentle agitation to allow binding of phospholipids to neomycin-SPA beads. After precipitation of the neomycin-coated PVT SPA beads for 5 minutes at 1500×g, radioactive PtdIns(3)P is quantified by scintillation counting in a Wallac MicroBeta™ plate counter. The values indicated in Table I below refer to the IC50 (μM) with respect to PI3K, i.e. the amount necessary to achieve 50% inhibition of said target. Said values show a considerable inhibitory potency of pyridopyrimidine compounds with regard to PI3K.
A general note: In a scintillation proximity assay essentially only radioactivity close to the scintillant gives light.

With `COCCNc1cc(C(=O)O)nc2c(-c3ccc(F)cc3O)nc(N3CCOCC3)nc12` [Example 54, 4-(4-Fluoro-2-hydroxyphenyl)-8-[(2-methoxyethyl)amino]-2-morpholin-4-ylpyrido[3,2-d]pyrimidine-6-carboxylic acid], the IC50 (as a rule, the midpoint of a concentration-inhibition curve) was 89 nM.
In the case of `CNc1cc(C(=O)O)nc2c(-c3cccc4[nH]ccc34)nc(N3CCOCC3)nc12` [Example 18, 4-(1 H-Indol-4-yl)-8-methylamino-2-morpholin-4-yl-pyrido[3,2-d]pyrimidine-6-carboxylic acid], the IC50 stood at 780 nM.
Consider `COc1ccccc1-c1cc(C(=O)O)nc2c(-c3cccc(O)c3)nc(N3CCOCC3)nc12` [Example 13, 4-(3-hydroxyphenyl)-8-(2-methoxyphenyl)-2-morpholin-4-ylpyrido[3,2-d]pyrimidine-6-carboxylic acid], for which the 50% inhibitory concentration (IC50) came out at 24 nM.
Turning to `O=C(O)c1ccc2nc(N3CCOCC3)nc(-c3cccc(O)c3)c2n1` [Example 41, 4-(3-Hydroxyphenyl)-2-morpholin-4-ylpyrido[3,2-d]pyrimidine-6-carboxylic acid], the IC50 turned out to be 63 nM.
For `CS(=O)(=O)N1CCN(c2cc(C(=O)O)nc3c(-c4ccccc4)nc(N4CCOCC4)nc23)CC1` [Example 67, 8-[4-(Methylsulfonyl)piperazin-1-yl]-2-morpholin-4-yl-4-phenylpyrido[3,2-d]pyrimidine-6-carboxylic acid], the IC50 turned out to be 30 nM.
Turning to `CN(C)c1cc(C(=O)O)nc2c(-c3ccc(O)cc3)nc(N3CCOCC3)nc12` [Example 4, 8-Dimethylamino-4-(4-hydroxy-phenyl)-2-morpholin-4-yl-pyrido[3,2-d]pyrimidine-6-carboxylic acid], the IC50 came out at 350 nM.
Regarding `CS(=O)(=O)c1cc(C(=O)O)nc2c(-c3cccc(F)c3O)nc(N3CCOCC3)nc12` [Example 39], the IC50 is 26 nM.
Take `CNc1cc(C(=O)O)nc2c(-c3cc(F)ccc3O)nc(N3CCOCC3)nc12` [Example 30, 4-(5-Fluoro-2-hydroxyphenyl)-8-(methylamino)-2-morpholin-4-ylpyrido[3,2-d]pyrimidine-6-carboxylic acid]: the IC50 was 304 nM.
For the compound `COCCOc1cc(C(=O)O)nc2c(-c3cccc(O)c3)nc(N3CCOCC3)nc12` [Example 11, 4-(3-Hydroxy-phenyl)-8-(2-methoxy-ethoxy)-2-morpholin-4-yl-pyrido[3,2-d]pyrimidine-6-carboxylic acid], the IC50 is 255 nM.
The value for `COCCN(C)c1cc(C(=O)O)nc2c(-c3ccc(F)cc3O)nc(N3CCOCC3)nc12` [Example 51, 4-(4-Fluoro-2-hydroxyphenyl)-8-[(2-methoxyethyl)(methyl)amino]-2-morpholin-4-ylpyrido[3,2-d]pyrimidine-6-carboxylic acid] was 62 nM; that for `CNc1cc(C(=O)O)nc2c(-c3cccc(F)c3O)nc(N3CCOCC3)nc12` [Example 35, 4-(3-Fluoro-2-hydroxyphenyl)-8-(methylamino)-2-morpholin-4-ylpyrido[3,2-d]pyrimidine-6-carboxylic acid] was 48 nM; that for `COc1cccc(-c2nc(N3CCOCC3)nc3ccc(C(=O)O)nc23)c1` [Example 2, 4-(3-Methoxyphenyl)-2-morpholin-4-ylpyrido[3,2-d]pyrimidine-6-carboxylic acid] was 4490 nM.
In the case of `COCCN(C)c1cc(C(=O)O)nc2c(-c3cc(F)cc(F)c3)nc(N3CCOCC3)nc12` [Example 65, 4-(3,5-Difluorophenyl)-8-[(2-methoxyethyl)(methyl)amino]-2-morpholin-4-ylpyrido[3,2-d]pyrimidine-6-carboxylic acid] it was 1290 nM.
In the case of `CN(C)c1cc(C(=O)O)nc2c(-c3ccc(F)cc3O)nc(N3CCOCC3)nc12` [Example 52, 8-(Dimethylamino)-4-(4-fluoro-2-hydroxyphenyl)-2-morpholin-4-ylpyrido[3,2-d]pyrimidine-6-carboxylic acid] it was 83 nM; in that of `O=C(O)c1cc(NCCO)c2nc(N3CCOCC3)nc(-c3cccc(CO)c3)c2n1` [Example 48, 8-[(2-Hydroxyethyl)amino]-4-[3-(hydroxymethyl)phenyl]-2-morpholin-4-ylpyrido[3,2-d]pyrimidine-6-carboxylic acid], 27 nM; in that of `CN(C)CCN(C)c1cc(C(=O)O)nc2c(-c3ccccc3O)nc(N3CCOCC3)nc12` [Example 43, 8-[[2-(Dimethylamino)ethyl](methyl)amino]-4-(2-hydroxyphenyl)-2-morpholin-4-ylpyrido[3,2-d]pyrimidine-6-carboxylic acid], 459 nM.
For the compound `COCCNc1cc(C(=O)O)nc2c(-c3cccc4[nH]ccc34)nc(N3CCOCC3)nc12` [Example 19, 4-(1H-Indol-4-yl)-8-(2-methoxy-ethylamino)-2-morpholin-4-yl-pyrido[3,2-d]pyrimidine-6-carboxylic acid], the IC50 was determined as 128 nM.
In the case of `CN(CCO)c1cc(C(=O)O)nc2c(-c3cccc(F)c3O)nc(N3CCOCC3)nc12` [Example 37, 4-(3-Fluoro-2-hydroxyphenyl)-8-[(2-hydroxyethyl)(methyl)amino]-2-morpholin-4-ylpyrido[3,2-d]pyrimidine-6-carboxylic acid] it was 10 nM; in that of `CN(CCO)c1cc(C(=O)O)nc2c(-c3ccc(F)cc3O)nc(N3CCOCC3)nc12` [Example 59, 4-(4-Fluoro-2-hydroxyphenyl)-8-[(2-hydroxyethyl)(methyl)amino]-2-morpholin-4-ylpyrido[3,2-d]pyrimidine-6-carboxylic acid], 220 nM; in that of `COCCN(C)c1cc(C(=O)O)nc2c(-c3ccc(O)cc3)nc(N3CCOCC3)nc12` [Example 3, 4-(4-hydroxy-phenyl)-8-[(2-methoxy-ethyl)-methyl-amino]-2-morpholin-4-yl-pyrido[3,2-d]pyrimidine-6-carboxylic acid], 290 nM.
The value for `COCCNc1cc(C(=O)O)nc2c(-c3ccc(O)cc3)nc(N3CCOCC3)nc12` [Example 5, 4-(4-Hydroxy-phenyl)-8-(2-methoxy-ethylamino)-2-morpholin-4-yl-pyrido[3,2-d]pyrimidine-6-carboxylic acid] was 504 nM.
The value for `COCc1cccc(-c2nc(N3CCOCC3)nc3c(N(C)C)cc(C(=O)O)nc23)c1` [Example 25, 8-Dimethylamino-4-(3-methoxymethyl-phenyl)-2-morpholin-4-yl-pyrido[3,2-d]pyrimidine-6-carboxylic acid] was 5050 nM; that for `CN(C)c1cc(C(=O)O)nc2c(-c3cccc(CO)c3)nc(N3CCOCC3)nc12` [Example 23, 8-Dimethylamino-4-(3-hydroxymethyl-phenyl)-2-morpholin-4-yl-pyrido[3,2-d]pyrimidine-6-carboxylic acid] was 34 nM.
As for `O=C(O)c1cc(Cl)c2nc(N3CCOCC3)nc(-c3cccc(O)c3)c2n1` [Example 9, 8-Chloro-4-(3-hydroxyphenyl)-2-morpholin-4-ylpyrido[3,2-d]pyrimidine-6-carboxylic acid], the IC50 was 108 nM.
The value for `O=C(O)c1cc(NCCO)c2nc(N3CCOCC3)nc(-c3cc(O)cc(F)c3)c2n1` [Example 16, 4-(3-Fluoro-5-hydroxy-phenyl)-8-(2-hydroxy-ethylamino)-2-morpholin-4-yl-pyrido[3,2-d]pyrimidine-6-carboxylic acid] was 64 nM.
The value for `O=C(O)c1cc(NCCO)c2nc(N3CCOCC3)nc(-c3cccc(O)c3)c2n1` [Example 12, 8-(2-Hydroxy-ethylamino)-4-(3-hydroxy-phenyl)-2-morpholin-4-yl-pyrido[3,2-d]pyrimidine-6-carboxylic acid] was 75 nM; that for `CN(CCO)c1cc(C(=O)O)nc2c(-c3cccc4[nH]ccc34)nc(N3CCOCC3)nc12` [Example 20, 8-[(2-Hydroxy-ethyl)-methyl-amino]-4-(1H-indol-4-yl)-2-morpholin-4-yl-pyrido[3,2-d]pyrimidine-6-carboxylic acid] was 77 nM; that for `CS(=O)(=O)c1cc(C(=O)O)nc2c(-c3cc(F)ccc3O)nc(N3CCOCC3)nc12` [Example 55, 4-(5-Fluoro-2-hydroxyphenyl)-8-(methylsulfonyl)-2-morpholin-4-ylpyrido[3,2-d]pyrimidine-6-carboxylic acid] was 139 nM.
In the case of `COCCOc1cc(C(=O)O)nc2c(-c3ccc(O)cc3)nc(N3CCOCC3)nc12` [Example 6, 4-(4-Hydroxy-phenyl)-8-(2-methoxy-ethoxy)-2-morpholin-4-yl-pyrido[3,2-d]pyrimidine-6-carboxylic acid] it was 2520 nM; in that of `CS(=O)(=O)c1cc(C(=O)O)nc2c(-c3ccc(O)c(F)c3)nc(N3CCOCC3)nc12` [Example 45, 4-(3-Fluoro-4-hydroxyphenyl)-8-(methylsulfonyl)-2-morpholin-4-ylpyrido[3,2-d]pyrimidine-6-carboxylic acid], 335 nM.
